# Test results as given in ChEMBL document CHEMBL4251595, “Green approach for the synthesis of thiophenyl pyrazoles and isoxazoles by adopting 1,3-dipolar cycloaddition methodology and their antimicrobial activity” (2018).
# Active and inactive are the calls of the source. The calls are words filed in the database; no cut-off is given here.
# Key:
# Assay type in all cases: functional
# Aspergillus niger [1] = test: Antifungal activity against Aspergillus niger assessed as zone of inhibition at 100 ug/well after 48 hrs by agar well diffusion method; settings: for zone of inhibition at 100 µg/disc: read-out: DIZ
# Pseudomonas aeruginosa [2] = test: Antimicrobial activity against Pseudomonas aeruginosa assessed as zone of inhibition at 75 ug/well after 24 hrs by agar well diffusion method; settings: for zone of inhibition at 75 µg/disc: read-out: DIZ
# Bacillus subtilis [3] = test: Antimicrobial activity against Bacillus subtilis assessed as zone of inhibition at 100 ug/well after 24 hrs by agar well diffusion method; settings: for zone of inhibition at 100 µg/disc: read-out: DIZ
# Klebsiella pneumoniae [4] = test: Antimicrobial activity against Klebsiella pneumoniae assessed as zone of inhibition at 100 ug/well after 24 hrs by agar well diffusion method; settings: for zone of inhibition at 100 µg/disc: read-out: DIZ
# Penicillium chrysogenum [5] = test: Antifungal activity against Penicillium chrysogenum assessed as zone of inhibition at 75 ug/well after 48 hrs by agar well diffusion method; settings: for zone of inhibition at 75 µg/disc: read-out: DIZ
# Penicillium chrysogenum [6] = test: Antifungal activity against Penicillium chrysogenum assessed as zone of inhibition at 100 ug/well after 48 hrs by agar well diffusion method; settings: for zone of inhibition at 100 µg/disc: read-out: DIZ
# Bacillus subtilis [7] = test: Antimicrobial activity against Bacillus subtilis assessed as zone of inhibition at 75 ug/well after 24 hrs by agar well diffusion method; settings: for zone of inhibition at 75 µg/disc: read-out: DIZ
# Klebsiella pneumoniae [8] = test: Antimicrobial activity against Klebsiella pneumoniae assessed as zone of inhibition at 50 ug/well after 24 hrs by agar well diffusion method; settings: for zone of inhibition at 50 µg/disc: read-out: DIZ
# Penicillium chrysogenum [9] = test: Antifungal activity against Penicillium chrysogenum assessed as zone of inhibition at 50 ug/well after 48 hrs by agar well diffusion method
# Pseudomonas aeruginosa [10] = test: Antimicrobial activity against Pseudomonas aeruginosa assessed as zone of inhibition at 100 ug/well after 24 hrs by agar well diffusion method; settings: for zone of inhibition at 100 µg/disc: read-out: DIZ
# Klebsiella pneumoniae [11] = test: Antimicrobial activity against Klebsiella pneumoniae assessed as zone of inhibition at 75 ug/well after 24 hrs by agar well diffusion method; settings: for zone of inhibition at 75 µg/disc: read-out: DIZ
# Aspergillus niger [12] = test: Antifungal activity against Aspergillus niger assessed as zone of inhibition at 50 ug/well after 48 hrs by agar well diffusion method; settings: for zone of inhibition at 50 µg/disc: read-out: DIZ
# Staphylococcus aureus [13] = test: Antimicrobial activity against Staphylococcus aureus assessed as zone of inhibition at 75 ug/well after 24 hrs by agar well diffusion method; settings: for zone of inhibition at 75 µg/disc: read-out: DIZ
# Bacillus subtilis [14] = test: Antimicrobial activity against Bacillus subtilis assessed as zone of inhibition at 50 ug/well after 24 hrs by agar well diffusion method; settings: for zone of inhibition at 50 µg/disc: read-out: DIZ
# Staphylococcus aureus [15] = test: Antimicrobial activity against Staphylococcus aureus assessed as zone of inhibition at 50 ug/well after 24 hrs by agar well diffusion method; settings: for zone of inhibition at 50 µg/disc: read-out: DIZ
# Staphylococcus aureus [16] = test: Antimicrobial activity against Staphylococcus aureus assessed as zone of inhibition at 100 ug/well after 24 hrs by agar well diffusion method; settings: for zone of inhibition at 100 µg/disc: read-out: DIZ
# Aspergillus niger [17] = test: Antifungal activity against Aspergillus niger assessed as zone of inhibition at 75 ug/well after 48 hrs by agar well diffusion method; settings: for zone of inhibition at 75 µg/disc: read-out: DIZ
# Pseudomonas aeruginosa [18] = test: Antimicrobial activity against Pseudomonas aeruginosa assessed as zone of inhibition at 50 ug/well after 24 hrs by agar well diffusion method
SMILES,zone of inhibition at 100 µg/disc (Aspergillus niger [1]) [mm],zone of inhibition at 100 µg/disc (Bacillus subtilis [3]) [mm],zone of inhibition at 100 µg/disc (Klebsiella pneumoniae [4]) [mm],zone of inhibition at 75 µg/disc (Penicillium chrysogenum [5]) [mm],zone of inhibition at 100 µg/disc (Penicillium chrysogenum [6]) [mm],zone of inhibition at 75 µg/disc (Bacillus subtilis [7]) [mm],zone of inhibition at 50 µg/disc (Klebsiella pneumoniae [8]) [mm],zone of inhibition at 100 µg/disc (Pseudomonas aeruginosa [10]) [mm],zone of inhibition at 75 µg/disc (Klebsiella pneumoniae [11]) [mm],zone of inhibition at 50 µg/disc (Aspergillus niger [12]) [mm],zone of inhibition at 75 µg/disc (Staphylococcus aureus [13]) [mm],zone of inhibition at 50 µg/disc (Bacillus subtilis [14]) [mm],zone of inhibition at 50 µg/disc (Staphylococcus aureus [15]) [mm],zone of inhibition at 100 µg/disc (Staphylococcus aureus [16]) [mm],zone of inhibition at 75 µg/disc (Aspergillus niger [17]) [mm],diameter of the inhibition zone (DIZ) (Pseudomonas aeruginosa [2]),diameter of the inhibition zone (DIZ) (Penicillium chrysogenum [9]),diameter of the inhibition zone (DIZ) (Pseudomonas aeruginosa [10]),diameter of the inhibition zone (DIZ) (Aspergillus niger [12]),diameter of the inhibition zone (DIZ) (Pseudomonas aeruginosa [18]),further results
O=C(NS(=O)(=O)c1c(-c2ccccc2)nn(-c2ccccc2)c1-c1ccccc1)c1ccc(Cl)s1,25,32,27,15,17,28,23,19,25,18,21,25,19,24,21,–,–,–,–,–,zone of inhibition at 75 µg/disc (Pseudomonas aeruginosa [2]): 16 mm; zone of inhibition at 50 µg/disc (Penicillium chrysogenum [9]; read-out: DIZ): 13 mm; zone of inhibition at 50 µg/disc (Pseudomonas aeruginosa [18]; read-out: DIZ): 14 mm
Cc1ccc(C2C(S(=O)(=O)NC(=O)c3cccs3)C(c3ccccc3)=NN2c2ccccc2)cc1 (stereo not drawn),10,–,–,–,–,–,–,–,–,–,–,–,–,–,8,inactive,inactive,inactive,inactive,inactive,diameter of the inhibition zone (DIZ) (Bacillus subtilis [3]): inactive; diameter of the inhibition zone (DIZ) (Klebsiella pneumoniae [4]): inactive; diameter of the inhibition zone (DIZ) (Penicillium chrysogenum [5]): inactive; diameter of the inhibition zone (DIZ) (Penicillium chrysogenum [6]): inactive; diameter of the inhibition zone (DIZ) (Bacillus subtilis [7]): inactive; diameter of the inhibition zone (DIZ) (Klebsiella pneumoniae [8]): inactive; diameter of the inhibition zone (DIZ) (Klebsiella pneumoniae [11]): inactive; diameter of the inhibition zone (DIZ) (Staphylococcus aureus [13]): inactive; diameter of the inhibition zone (DIZ) (Bacillus subtilis [14]): inactive; diameter of the inhibition zone (DIZ) (Staphylococcus aureus [15]): inactive; diameter of the inhibition zone (DIZ) (Staphylococcus aureus [16]): inactive
Cc1ccc(-c2c(S(=O)(=O)NC(=O)c3cccs3)c(-c3ccccc3)nn2-c2ccccc2)cc1,17,21,18,8,10,18,14,11,16,12,12,16,9,14,15,–,inactive,–,–,inactive,zone of inhibition at 75 µg/disc (Pseudomonas aeruginosa [2]): 8 mm
O=C(NS(=O)(=O)C1C(c2ccccc2)=NOC1c1ccc([N+](=O)[O-])cc1)c1cccs1 (stereo not drawn),13,20,11,8,10,16,9,–,10,–,12,15,11,15,10,inactive,inactive,inactive,inactive,inactive,–
Cc1ccc(-c2c(S(=O)(=O)NC(=O)c3ccc(Cl)s3)c(-c3ccccc3)nn2-c2ccccc2)cc1,23,24,20,10,13,20,15,13,17,16,15,18,12,16,19,inactive,inactive,–,–,inactive,–
O=C(NS(=O)(=O)C1C(c2ccccc2)=NN(c2ccccc2)C1c1ccccc1)c1cccs1 (stereo not drawn),–,–,–,–,–,–,–,–,–,–,–,–,–,–,–,inactive,inactive,inactive,inactive,inactive,diameter of the inhibition zone (DIZ) (Aspergillus niger [1]): inactive; diameter of the inhibition zone (DIZ) (Bacillus subtilis [3]): inactive; diameter of the inhibition zone (DIZ) (Klebsiella pneumoniae [4]): inactive; diameter of the inhibition zone (DIZ) (Penicillium chrysogenum [5]): inactive; diameter of the inhibition zone (DIZ) (Penicillium chrysogenum [6]): inactive; diameter of the inhibition zone (DIZ) (Bacillus subtilis [7]): inactive; diameter of the inhibition zone (DIZ) (Klebsiella pneumoniae [8]): inactive; diameter of the inhibition zone (DIZ) (Klebsiella pneumoniae [11]): inactive; diameter of the inhibition zone (DIZ) (Staphylococcus aureus [13]): inactive; diameter of the inhibition zone (DIZ) (Bacillus subtilis [14]): inactive; diameter of the inhibition zone (DIZ) (Staphylococcus aureus [15]): inactive; diameter of the inhibition zone (DIZ) (Staphylococcus aureus [16]): inactive; diameter of the inhibition zone (DIZ) (Aspergillus niger [17]): inactive
